Results taken from paper PMC7503370, “Cellular Signaling and Anti-Apoptotic Effects of Prolactin-Releasing Peptide and Its Analog on SH-SY5Y Cells” (International Journal of Molecular Sciences, 2020).

Tests used:
Type in all cases: cell-based, human
[1] = system: p-m-Tor, p-GSK-3β, p-ERK, p-CREB in SH-SY5Y cells; assay: Western blotting with selective inhibitors of signaling pathways
Description: Immunoblots with PrRP31 and palm^11-PrRP31: (a) and insulin: (b) and their quantifications: (c). SH-SY5Y cells were incubated firstly with selective inhibitors for 2 min and then either with PrRP31 and its palmitoylated analog at a final concentration 1 × 10^−5 M, or with insulin in the final concentration 1 × 10^−7 M at 37 °C for 8 min, or alone in serum-free medium. Activated protein was normalized to loading control, GAPDH. Data are presented as the means ± SEM as a percentage of control cells treated with medium alone. Analysis is made between groups as shown in the graph by a Student’s t-test, * p < 0.5, ** p < 0.01, *** p < 0.001(each sample in triplicates).
(§1) Eight minutes of incubation was performed in a series of experiments with different exposure times (5, 10, 15, 30, and 60 min) to PrRP31 and its palmitoylated analog. Activation of analogs was strongest after 10 min. Then, the cells were treated with inhibitors of signaling pathways for 2 min, and analogs were added for 8 min. The time of exposure was set to 8 min to ensure that the incubation time for PrRP31 and its palmitoylated analog was the same. The controls and compounds were tested in triplicate in three independent experiments. The PI3K/Akt pathway is one of the main signaling pathways of insulin; therefore, insulin was used as a positive control. Scrambled peptide was used as a negative control. Activation is expressed as the ratio of the activated protein to the total amount of the protein. GAPDH was used as a loading control.
For further research, inhibitors of signaling pathways were used. The growth medium was exchanged for serum-free DMEM 16 h before the experiment. On the day of the experiment, cells were incubated for 2 min with rapamycin, SB216736 or U0126 at a final concentration of 1 × 10^−6 M; then, PrRP31, palm^11-PrRP31 or scrambled peptide at a final concentration of 1 × 10^−5 M or insulin at a concentration of 1 × 10^−7 M was added for 8 min. The plates were stored at 37 °C. The controls and compounds were tested in triplicate.

[2] = system: PI3K/Akt signaling pathway in SH-SY5Y cells; assay: Western blotting of PI3K/Akt signaling pathway after 8 min incubation; settings: 37 °C
Description: Figure 1 Prolactin-releasing peptide 31 (PrRP31) and palm^11-PrRP31 increased phosphoinositide-3 kinase (PI3K/Akt) signaling pathway in SH-SY5Y cells. Immunoblots: (a) and their quantifications: (b). SH-SY5Y cells were incubated either with PrRP31 and its palmitoylated analog and scrambled at a final concentration 1 × 10^-5 M, or with insulin at the final concentration 1 × 10^−7 M at 37 °C for 8 min, or medium alone (control). Activation was expressed as the ratio of the activated protein to the total amount of the protein, both normalized to loading control, glyceraldehyde 3-phosphate dehydrogenase (GAPDH). Data are presented as the means ± SEM as a percentage of control cells analyzed by one-way ANOVA followed by the Dunnett post hoc test, * p < 0.5, ** p < 0.01, **** p < 0.0001 (n = 3, each sample in triplicates).
(§2) For the investigation of the molecular mechanism of PrRP31 and its analog in the cells, signaling pathways were studied by Western blotting (WB). The cells were cultured in 6-well plates at a density of 800,000 cells per well. Growth medium was exchanged for serum-free DMEM 16 h before an experiment, and then, the cells were incubated with PrRP31, palm^11-PrRP31, or scrambled peptide at a final concentration of 1 × 10^−5 M or insulin at a concentration of 1 × 10^−7 M at 37 °C for 8 min. The cells were rapidly cooled on ice and lysed in 400 µl of Laemmli sample buffer (62.5 mM Tris-HCl with pH 6.8, 2% SDS, 10% glycerol, 0.01% bromophenol blue, 5% mercaptoethanol, 50 mM NaF, and 1 mM Na3VO4) and stored at −20 °C. Afterward, the cell lysates were analyzed by WB. SDS-electrophoresis and WB were carried out using a Criterion system with a 26-well 4−15% Criterion^TM TGX^TM Precast Midi Protein Gel (Bio-Rad, Hercules, CA, USA) at a constant voltage of 200 V or 100 V, respectively.
(§3) Subsequently, the membranes were incubated overnight with primary antibody (Ab) at 4 °C, according to the manufacturer´s instructions (Table 2). The next day, the membranes were incubated with an HRP-linked secondary antibody for 1 h at room temperature. Chemiluminescence was visualized with a ChemiDoc^TM System (Bio-Rad). Band intensities were normalized using glyceraldehyde 3-phosphate dehydrogenase (GAPDH) as an internal loading control.
as §1

[3] = system: p-c-Jun, p-ERK, p-Bad, Bax/Bcl-2 in SH-SY5Y cells; assay: Western blotting of anti-apoptotic signaling in MG-stressed cells; settings: 0.6 mM MG 16 h vs control cells
Description: (§4) Figure 7 PrRP31 and palm^11-PrRP31 affected anti-apoptotic signaling in SH-SY5Y cells. Immunoblots: (a) and their quantifications: (b). SH-SY5Y cells were pretreated with PrRP31 and palm^11-PrRP31 at a concentration of 1 × 10^−5 M for 4 h and then stressed with 0.6 mM MG for 16 h. Activation was expressed as the ratio of the activated protein to the total amount of the protein, both normalized to loading control, GAPDH. Data are presented as the means ± SEM as a percentage of control cells treated with medium alone. Analysis is made vs. MG by a Student’s t-test, * p < 0.5, ** p < 0.01 (each sample in triplicates).
as §2, §3
(§5) For analysis of the molecular mechanism during MG stress, the growth medium was exchanged for serum-free DMEM 16 h before the experiment. The cells were pretreated with 1 × 10^−5 M PrRP31 or palm^11-PrRP31 for 4 h; then, MG was added to a final concentration of 0.6 mM, and the cells were incubated at 37 °C for 16 h. The controls and compounds were tested in triplicate.

[4] = system: Tau protein phosphorylation in SH-SY5Y cells; assay: Western blotting of Tau phosphorylation in MG-stressed cells; settings: 0.6 mM MG 16 h vs control cells
Description: as §4, with “8” for “7”, “attenuate Tau hyperphosphorylation at the epitope Ser396” for “affected anti-apoptotic signaling”, “SH-SY5Y. Immunoblots with:” for “SH-SY5Y cells. Immunoblots:”, “sample replicate” for “sample”, “triplicate).” for “triplicates).”
as §2, §3, §5

[5] = inhibitor 1 × 10^−6 M for 2 min, then peptide for 8 min, under the control level
[6] = PrRP31 and palm^11-PrRP31 1 × 10^−5 M, insulin 1 × 10^−7 M, 37 °C, 8 min

CO[C@H]1C[C@@H]2CC[C@@H](C)[C@@](O)(O2)C(=O)C(=O)N2CCCC[C@H]2C(=O)O[C@H]([C@H](C)C[C@@H]2CC[C@@H](O)[C@H](OC)C2)CC(=O)[C@H](C)/C=C(\C)[C@@H](O)[C@@H](OC)C(=O)[C@H](C)C[C@H](C)/C=C/C=C/C=C/1C [rapamycin, Rapamycin]
effect on the increase of p-m-Tor (Ser2448) by PrRP31, palm^11-PrRP31 and insulin [1, 5]: inhibited

Cn1cc(C2=C(c3ccc(Cl)cc3Cl)C(=O)NC2=O)c2ccccc21 [SB216736]
effect on the level of p-GSK-3β (Ser9) in cells treated with insulin ([1]; inhibitor 1 × 10^−6 M for 2 min, then insulin 1 × 10^−7 M for 8 min): tended to decrease
effect on the palm^11-PrRP31-induced increase of p-GSK-3β (Ser9) ([1]; inhibitor 1 × 10^−6 M for 2 min, then palm^11-PrRP31 1 × 10^−5 M for 8 min): significantly reversed

GHFTHSIRMI K^11 (γ-E (N-palm))TPRNASVYARPCitDWWGICitPES [scrambled-palm^11-PrRP31]
effect on the PI3K/Akt pathway ([2]; negative control, 1 × 10^-5 M): did not significantly affect

insulin: human insulin used as a positive control
activation of proteins of the insulin signaling cascade ([2]; positive control, 1 × 10^−7 M): significantly activated
p-CREB after incubation with peptide, no inhibitor [1, 6]: increased
p-ERK after incubation with peptide, no inhibitor [1, 6]: increased
p-m-Tor (Ser2448) after application of peptide, no inhibitor ([1]; PrRP31 and palm^11-PrRP31 1 × 10^−5 M, insulin 1 × 10^−7 M, 37 °C, 8 min, normalized to GAPDH, triplicates): significantly increased
p-GSK-3β (Ser9) after incubation with peptide, no inhibitor ([1]; palm^11-PrRP31 1 × 10^−5 M, insulin 1 × 10^−7 M, 37 °C, 8 min, normalized to GAPDH, triplicates): slight increase

N#CC(=C(/N)Sc1ccccc1N)/C(C#N)=C(/N)Sc1ccccc1N [U0126]
effect on the increase of p-ERK and p-CREB by PrRP31, palm^11-PrRP31 and insulin [1, 5]: significantly blocked

CC(=O)C=O [MG, methylglyoxal, reference compound]
level of p-Bad (Ser112)/Bad after MG [3]: increased
level of p-Bad (Ser136)/Bad after MG [3]: increased
level of p-c-Jun (Ser73)/c-Jun after MG [3]: increased
Tau phosphorylation at Ser198/199/202 (Tau 1)/Tau 5 after MG [4]: tended to increase
Tau phosphorylation at Ser396 after MG [4]: increased
